We go through 37 substances from patent US20250231185A1, “Coronavirus T Cell Epitopes, Megapools and Uses Thereof” (La Jolla Institute for Immunology, priority 2021, published 2025).

In assay [1] the test system is CD8+ T cells. The assay is described as follows: Meta-analysis of published SARS-CoV-2 CD8 T cell epitope data curated in the IEDB (25 studies). It is filed as cell-based, human.
Assay [2] deals with CD8+ T cells. Conditions: T cell type (CD4 or CD8) recognizing the SARS-CoV-2 epitope; cited from earlier work.
Where [3] appears, read: SARS-CoV-2-derived CD8 epitopes, dominant = recognized by 3 or more donors/different studies.
[4] abbreviates: CD8S (D) Megapool, antigen S, dominant = recognized in 3 or more donors/studies.

Turning to 901 (NTCDGTTFTY) [compound 901], the Dominant entry in assay [1] (setting [3]) is reported as “Yes (more dominant epitopes are defined by being recognized by 3 or more donors/different studies)”. Further, the Restriction entry in assay [2] is listed as “CD8”.
Turning to 903 (FTYASALWEI) [compound 903], the Dominant entry in assay [1] (setting [3]) is given as “Yes (more dominant epitopes are defined by being recognized by 3 or more donors/different studies)”. For the same substance, the Restriction result in assay [2] was “CD8”.
As for 905 (ALWEIQQV) [compound 905], the Dominant entry in assay [1] (setting [3]) is on record as “Yes (more dominant epitopes are defined by being recognized by 3 or more donors/different studies)”. In addition, the Restriction entry in assay [2] was “CD8”.
909 (ALRANSAVK) [compound 909]: in assay [1] (setting [3]), the Dominant entry is “Yes (more dominant epitopes are defined by being recognized by 3 or more donors/different studies)”. Moreover, in assay [2], the Restriction entry was “CD8”.
In the case of 910 (CTDDNALAYY) [compound 910], the Dominant entry in assay [1] (setting [3]) is recorded as “Yes (more dominant epitopes are defined by being recognized by 3 or more donors/different studies)”. In addition, in assay [2], the Restriction result is recorded as “CD8”.
As to 913 (YTELEPPCRF) [compound 913], the Dominant result in assay [1] (setting [3]) is reported as “Yes (more dominant epitopes are defined by being recognized by 3 or more donors/different studies)”. The Restriction entry in assay [2] was “CD8”.
914 (VTDTPKGPK) [compound 914]: the Dominant entry in assay [1] (setting [3]) is reported as “Yes (more dominant epitopes are defined by being recognized by 3 or more donors/different studies)”. Besides, in assay [2], the Restriction entry is “CD8”.
920 (TVLSFCAFAV) [compound 920]: the Dominant entry in assay [1] (setting [3]) is “Yes (more dominant epitopes are defined by being recognized by 3 or more donors/different studies)”. For the same substance, the Restriction entry in assay [2] was “CD8”.
On to 922 (DLKGKYVQI) [compound 922], for which the Dominant result in assay [1] (setting [3]) is recorded as “Yes (more dominant epitopes are defined by being recognized by 3 or more donors/different studies)”. For the same substance, in assay [2], the Restriction result is “CD8”.
930 (YTMADLVYAL) [compound 930]: the Dominant entry in assay [1] (setting [3]) is “Yes (more dominant epitopes are defined by being recognized by 3 or more donors/different studies)”. In addition, the Restriction result in assay [2] is listed as “CD8”.
For the substance 931 (TMADLVYAL) [compound 931], the Dominant entry in assay [1] (setting [3]) was “Yes (more dominant epitopes are defined by being recognized by 3 or more donors/different studies)”. In addition, the Restriction entry in assay [2] is listed as “CD8”.
As for 939 (LLMPILTLT) [compound 939], the Dominant entry in assay [1] (setting [3]) is reported as “Yes (more dominant epitopes are defined by being recognized by 3 or more donors/different studies)”. Moreover, the Restriction result in assay [2] is on record as “CD8”.
For 943 (KLFDRYFKY) [compound 943], the Dominant result in assay [1] (setting [3]) is given as “Yes (more dominant epitopes are defined by being recognized by 3 or more donors/different studies)”. Also, in assay [2], the Restriction entry is “CD8”.
Take 951 (FVDGVPFVV) [compound 951]: in assay [1] (setting [3]), the Dominant entry was “Yes (more dominant epitopes are defined by being recognized by 3 or more donors/different studies)”. Moreover, the Restriction result in assay [2] is given as “CD8”.
In the case of 961 (ISDYDYYRY) [compound 961], the Dominant result in assay [1] (setting [3]) is “Yes (more dominant epitopes are defined by being recognized by 3 or more donors/different studies)”. In assay [2], the Restriction entry is on record as “CD8”.
On to 964 (RQLLFVVEV) [compound 964], for which the Dominant entry in assay [1] (setting [3]) is “Yes (more dominant epitopes are defined by being recognized by 3 or more donors/different studies)”. Moreover, in assay [2], the Restriction entry was “CD8”.
Turning to 966 (VVDKYFDCY) [compound 966], the Dominant entry in assay [1] (setting [3]) was “Yes (more dominant epitopes are defined by being recognized by 3 or more donors/different studies)”. Also, the Restriction entry in assay [2] is recorded as “CD8”.
With 970 (RLYYDSMSY) [compound 970], the Dominant entry in assay [1] (setting [3]) is “Yes (more dominant epitopes are defined by being recognized by 3 or more donors/different studies)”. In addition, the Restriction entry in assay [2] is listed as “CD8”.
Regarding 989 (MVMCGGSLYV) [compound 989], in assay [1] (setting [3]), the Dominant entry is on record as “Yes (more dominant epitopes are defined by being recognized by 3 or more donors/different studies)”. Besides, in assay [2], the Restriction entry is “CD8”.
In the case of 992 (DTDFVNEFY) [compound 992], the Dominant entry in assay [1] (setting [3]) is given as “Yes (more dominant epitopes are defined by being recognized by 3 or more donors/different studies)”. Besides, the Restriction result in assay [2] is “CD8”.
Turning to 995 (FYAYLRKHF) [compound 995], in assay [1] (setting [3]), the Dominant entry is given as “Yes (more dominant epitopes are defined by being recognized by 3 or more donors/different studies)”. Further, the Restriction entry in assay [2] is on record as “CD8”.
As for 1008 (RILGAGCFV) [compound 1008], the Dominant entry in assay [1] (setting [3]) is listed as “Yes (more dominant epitopes are defined by being recognized by 3 or more donors/different studies)”. Further, the Restriction result in assay [2] is given as “CD8”.
Take 1012 (LYLQYIRKL) [compound 1012]: the Dominant result in assay [1] (setting [3]) was “Yes (more dominant epitopes are defined by being recognized by 3 or more donors/different studies)”. The Restriction result in assay [2] is “CD8”.
Consider 1019 (VLQAVGACV) [compound 1019], for which the Dominant result in assay [1] (setting [3]) is given as “Yes (more dominant epitopes are defined by being recognized by 3 or more donors/different studies)”. Besides, the Restriction entry in assay [2] is “CD8”.
Regarding 1020 (LVLSVNPYV) [compound 1020], the Dominant entry in assay [1] (setting [3]) is “Yes (more dominant epitopes are defined by being recognized by 3 or more donors/different studies)”. Also, in assay [2], the Restriction result was “CD8”.
As to 1025 (VVYRGTTTYK) [compound 1025], the Dominant result in assay [1] (setting [3]) was “Yes (more dominant epitopes are defined by being recognized by 3 or more donors/different studies)”. For the same substance, the Restriction entry in assay [2] is “CD8”.
Regarding 1026 (VVYRGTTTY) [compound 1026], in assay [1] (setting [3]), the Dominant entry is listed as “Yes (more dominant epitopes are defined by being recognized by 3 or more donors/different studies)”. Further, the Restriction result in assay [2] is “CD8”.
Regarding 1511 (YHLMSFPQSA) [compound 1511], in assay [1] (setting [4]), the Dominant entry is “Yes (more dominant epitopes are defined by being recognized by 3 or more donors/different studies)”.
Same read-out and setting: the same measure for 1512 (HLMSFPQSA) [compound 1512]: “Yes (more dominant epitopes are defined by being recognized by 3 or more donors/different studies)”; for 1513 (APHGVVFLHV) [compound 1513]: “Yes (more dominant epitopes are defined by being recognized by 3 or more donors/different studies)”; for 1514 (VVFLHVTYV) [compound 1514]: “Yes (more dominant epitopes are defined by being recognized by 3 or more donors/different studies)”.
For the substance 1515 (GTHWFVTQR) [compound 1515], the Dominant entry in assay [1] (setting [4]) is “Yes (more dominant epitopes are defined by being recognized by 3 or more donors/different studies)”.
As for 1516 (RLNEVAKNL) [compound 1516], the Dominant entry in assay [1] (setting [4]) was “Yes (more dominant epitopes are defined by being recognized by 3 or more donors/different studies)”.
On the same count and under the same terms, the same measure for 1517 (NLNESLIDL) [compound 1517]: “Yes (more dominant epitopes are defined by being recognized by 3 or more donors/different studies)”; for 1518 (QYIKWPWYI) [compound 1518]: “Yes (more dominant epitopes are defined by being recognized by 3 or more donors/different studies)”; for 1519 (KWPWYIWLGF) [compound 1519]: “Yes (more dominant epitopes are defined by being recognized by 3 or more donors/different studies)”.
Same read-out and setting: the same measure for 1521 (SEPVLKGVKL) [compound 1521]: “Yes (more dominant epitopes are defined by being recognized by 3 or more donors/different studies)”.
